Reference: patent US7972645B2, “Dioscorea extracts for enhancing immune system” (Academia Sinica, priority 2003, dated 2011)

Test system: NF-κB-inducible ELAM-1 composite promoter
Assay: NF-κB-inducible ELAM-1 composite promoter reporter (SEAP) assay in transfected B16 melanoma cells
Format: cell-based
Settings: Polymyxin B 400 U
Method: Briefly, B16 melanoma cells were transfected with a vector carrying the human secreted embryonic alkaline phosphatase (SEAP) gene, whose expression is under the control of a NF-κB-inducible ELAM-1 composite promoter, using a standard method for reporter (SEAP) assay. B16 melanoma cells were transfected with the NF-kB-inducible reporter plasmid pNiFty-SEAP (InvivoGen) in the presence of lipofectin (Invitrogen) for 24 hours. The SEAP secreted into medium was measured according to the manufacturer's instructions (Phospha-Light™ System, Applied Biosystems).
The transfected cells were then incubated with DsCE-I before the chemiluminescent reporter gene assays were conducted. It was known that LPS increased the activity of NF-κB and p38MAPK was involved in the LPS-induced activation. Therefore, LPS (0.1 μg/ml) was used as a positive control (Group A) and the corresponding […] was normalized as 100%. To illustrate the specificity, the effects of inhibitors of the LPS-induced activation were also examined. These inhibitors included SB203580 (“SB,” a p38MAPK inhibitor), PDTC (“PD,” a NF-κB inhibitor), and Polymyxin B (“PB,” an LPS-binding antibiotic). The solvent used to prepare the reagents was used as a negative control (Group J).

In the case of Polymyxin B, the “Inhibition of DsCE-I-induced activation (in words)” value (DsCE-I 100 μg/ml) is reported as “only partially inhibited” and the “Inhibition of LPS-induced activation (in words)” value (LPS 0.1 μg/ml) is reported as “inhibited LPS-induced activation completely”.
